Experimental data taken from ChEMBL document CHEMBL6103619, “Discovery of a Novel CRBN-Recruiting cGAS PROTAC Degrader for the Treatment of Ulcerative Colitis” (J Med Chem, 2025).
The source made the active and inactive calls. The calls are words filed in the database; no cut-off is given here.

Legend:
[1] = (§1) Inhibition of dsDNA-induced cGAS signaling pathway in mouse RAW-Lucia ISG cells preincubated with compound for 24 hrs followed by HT-DNA addition and measured after 24 hrs by QUANTI-Luc luciferase reagent based assay; format: cell-based
[2] = tested on: RAW-Lucia ISG; assay: as §1; format: cell-based; settings: time 48.0 hrs
[3] = tested on: THP1-Lucia ISG; assay: (§2) Potency index, ratio of 1-(6,7-dichloro-9-(1-methyl-1H-pyrazol-3-yl)-1,3,4,5-tetrahydro-2H-pyrido[4,3-b]indol-2-yl)-2-hydroxyethan-1-one IC50 to test compound IC50 for inhibition of dsDNA-induced cGAS signaling pathway in human THP1-Lucia ISG cells preincubated with compound for 24 hrs followed by HT-DNA addition and measured after 24 hrs by QUANTI-Luc luciferase reagent based assay; format: cell-based; settings: time 48.0 hrs
[4] = tested on: RAW-Lucia ISG; assay: as §2, with “mouse RAW-Lucia” for “human THP1-Lucia”; format: cell-based; settings: time 48.0 hrs
[5] = tested on: RAW264.7; assay: Downregulation of CXCL10 mRNA expression in mouse RAW264.7 cells preincubated with compound for 40 hrs followed by HT-DNA addition and measured after 8 hrs by qRT-PCR analysis; format: functional, cell-based; settings: dose 2.5-20 µM, time 48.0 hrs
[6] = tested on: THP-1; assay: Downregulation of IFNB mRNA expression level in HT-DNA-induced human THP-1 cells at 20 uM preincubated with compound for 12 hrs followed by HT-DNA addition and measured after 8 hrs by RT-qPCR analysis; format: functional, cell-based; settings: time 20.0 hrs
[7] = Cytotoxicity against mouse RAW-Lucia ISG cells assessed as reduction in cell viability upto 60 uM incubated for 48 hrs by CCK8 assay; format: toxicity, cell-based
[8] = Volume of distribution in male C57BL/6 mouse at 1 mg/kg, iv measured after 24 hrs by LC-MS/MS analysis; format: ADME, organism-based; settings: in vivo
[9] = biological target: T1, Protein cereblon/Cyclic GMP-AMP synthase (Mus musculus) (UniProt Q8C6L5+Q8C7D2); assay: (§3) In vivo inhibition of cGAS signaling pathway in DSS-induced ulcerative colitis C57BL/6 mouse model assessed as reduction in STING phosphorylation level in colon preadministered with DSS for 7 days followed by replacement with ultrapure water for 3 days with subsequent intraperitoneal compound administration starting from day 4 to 10 and measured on day 11 by Western blot analysis; format: functional, organism-based; settings: dose 20-50 mg/kg/day, route ip, time 8.0 day
T1 sequence (Q8C6L5 whole entry, looked up): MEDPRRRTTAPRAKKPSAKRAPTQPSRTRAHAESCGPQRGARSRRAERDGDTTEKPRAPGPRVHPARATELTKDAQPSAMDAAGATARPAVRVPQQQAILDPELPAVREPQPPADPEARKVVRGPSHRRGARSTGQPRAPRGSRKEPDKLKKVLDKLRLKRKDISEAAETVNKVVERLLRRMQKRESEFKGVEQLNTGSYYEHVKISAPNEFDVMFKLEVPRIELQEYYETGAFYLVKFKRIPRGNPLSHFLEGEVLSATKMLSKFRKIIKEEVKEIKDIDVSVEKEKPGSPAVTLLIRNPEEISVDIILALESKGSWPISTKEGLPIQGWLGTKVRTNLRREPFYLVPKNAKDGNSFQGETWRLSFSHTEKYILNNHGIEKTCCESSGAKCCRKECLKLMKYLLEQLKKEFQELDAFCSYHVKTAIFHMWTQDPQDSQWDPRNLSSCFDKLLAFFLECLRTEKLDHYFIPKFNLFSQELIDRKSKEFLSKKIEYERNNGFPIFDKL
T1 sequence (Q8C7D2 whole entry, looked up): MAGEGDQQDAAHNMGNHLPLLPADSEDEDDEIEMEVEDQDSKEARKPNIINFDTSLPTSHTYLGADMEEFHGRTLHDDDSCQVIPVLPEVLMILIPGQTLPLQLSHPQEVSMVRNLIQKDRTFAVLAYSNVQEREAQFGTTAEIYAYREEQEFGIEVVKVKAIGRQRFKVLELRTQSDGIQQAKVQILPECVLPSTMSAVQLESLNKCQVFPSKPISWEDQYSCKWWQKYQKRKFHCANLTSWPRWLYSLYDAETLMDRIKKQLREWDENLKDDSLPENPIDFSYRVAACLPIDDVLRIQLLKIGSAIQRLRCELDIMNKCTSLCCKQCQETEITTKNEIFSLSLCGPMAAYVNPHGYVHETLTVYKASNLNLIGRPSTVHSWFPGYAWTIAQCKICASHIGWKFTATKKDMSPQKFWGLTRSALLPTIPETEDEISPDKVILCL

[10] = biological target: T1, Protein cereblon/Cyclic GMP-AMP synthase (Mus musculus); assay: as §3, with “TBK1” for “STING”; format: functional, organism-based; settings: dose 20-50 mg/kg/day, route ip, time 8.0 day
[11] = tested on: Mus musculus; assay: Anti-inflammatory activity in DSS-induced ulcerative colitis C57BL/6 mouse model assessed as reduction in IL-6 mRNA level in colon at 20 to 50 mg/kg/day, ip preadministered with DSS for 7 days followed by replacement with ultrapure water for 3 days with subsequent compound administration starting from day 4 to 10 and measured on day 11 by qRT-PCR analysis; format: functional, organism-based; settings: dose 20-50 mg/kg/day, time 8.0 day

For `Cn1ccc(-c2cc(Cl)c(Cl)c3[nH]c4c(c23)CN(C(=O)CNC(=O)CCCC#Cc2cccc3c2CN(C2CCC(=O)NC2=O)C3=O)CC4)n1` (stereo unspecified), which IC50 [1] is on record?
The IC50 was 4.8 µM.

And the inhibition [2]?
The inhibition was “Dose-dependent-effect”.

What about the Ratio IC50 [3] of the same molecule?
Its Ratio IC50 is 3.

And the Ratio IC50 [4]?
Its Ratio IC50 is 3.

What about the Activity [5] of the same molecule?
The Activity was “Dose-dependent-effect”.

And the Activity [6]?
Its Activity is “Active”.

And the Activity [7]?
Its Activity is “Non-toxic”.

And the Vd [8]?
The Vd was 8.1 L/kg.

And the inhibition [9]?
Its inhibition is “Dose-dependent-effect”.

What about the inhibition [10] of the same molecule?
The inhibition was “Dose-dependent-effect”.

What about the Activity [11] of the same molecule?
The Activity was “Active”.
